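Protocol summary: plate cells (96-well), add compound at 5 concentrations, incubate 48 h, interpolate endpoints linearly. At the TGI there is no net growth.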
Columns and labels:
Experiment in all cases: growth of human tumour cells (NCI), 48 h
BT-549 breast = system: BT-549 breast
HCT-116 colon = system: HCT-116 colon
UACC-257 melanoma = system: UACC-257 melanoma
K-562 leukemia = system: K-562 leukemia
MALME-3M melanoma = system: MALME-3M melanoma
SF-268 CNS = system: SF-268 CNS
EKVX NSCLC = system: EKVX NSCLC
SW-620 colon = system: SW-620 colon
SR leukemia = system: SR leukemia
MDA-N = system: MDA-N
OVCAR-8 ovarian = system: OVCAR-8 ovarian
SF-539 CNS = system: SF-539 CNS
UO-31 renal = system: UO-31 renal
M14 melanoma = system: M14 melanoma
SK-OV-3 ovarian = system: SK-OV-3 ovarian
HOP-62 NSCLC = system: HOP-62 NSCLC
MDA-MB-231 breast = system: MDA-MB-231 breast
U251 CNS = system: U251 CNS
SNB-19 CNS = system: SNB-19 CNS
SN12C renal = system: SN12C renal
OVCAR-5 ovarian = system: OVCAR-5 ovarian
COLO 205 colon = system: COLO 205 colon
DU-145 prostate = system: DU-145 prostate
HOP-92 NSCLC = system: HOP-92 NSCLC
SK-MEL-2 melanoma = system: SK-MEL-2 melanoma
HT29 colon = system: HT29 colon
UACC-62 melanoma = system: UACC-62 melanoma
SK-MEL-28 melanoma = system: SK-MEL-28 melanoma
HCC-2998 colon = system: HCC-2998 colon
HL-60(TB) leukemia = system: HL-60(TB) leukemia
KM12 colon = system: KM12 colon
SNB-75 CNS = system: SNB-75 CNS
A498 renal = system: A498 renal
IGROV1 ovarian = system: IGROV1 ovarian
OVCAR-3 ovarian = system: OVCAR-3 ovarian
RXF 393 renal = system: RXF 393 renal
PC-3 prostate = system: PC-3 prostate
SF-295 CNS = system: SF-295 CNS
MDA-MB-435 = system: MDA-MB-435
786-0 renal = system: 786-0 renal
TK-10 renal = system: TK-10 renal
LOX IMVI melanoma = system: LOX IMVI melanoma
MOLT-4 leukemia = system: MOLT-4 leukemia
HCT-15 colon = system: HCT-15 colon
NCI-H23 lung = system: NCI-H23 lung
NCI-H522 lung = system: NCI-H522 lung
NCI-H460 lung = system: NCI-H460 lung
CAKI-1 renal = system: CAKI-1 renal
NCI/ADR-RES ovarian = system: NCI/ADR-RES ovarian
NCI-H226 lung = system: NCI-H226 lung
CCRF-CEM leukemia = system: CCRF-CEM leukemia
ACHN renal = system: ACHN renal
OVCAR-4 ovarian = system: OVCAR-4 ovarian
RPMI-8226 leukemia = system: RPMI-8226 leukemia
A549 NSCLC = system: A549 NSCLC
MCF7 breast = system: MCF7 breast
T-47D breast = system: T-47D breast
HS 578T breast = system: HS 578T breast
SK-MEL-5 melanoma = system: SK-MEL-5 melanoma

Structure (SMILES): Nc1c(C(=O)c2ccc(Cl)cc2)[nH]c(Nc2ccc(Cl)cc2)c1C(=S)Nc1ccccc1
- TGI (BT-549 breast): 8.02 µM
- TGI (HCT-116 colon): 13.4 µM
- TGI (UACC-257 melanoma): 31.8 µM
- TGI (K-562 leukemia): 17.8 µM
- TGI (MALME-3M melanoma): 36.1 µM
- TGI (SF-268 CNS): 17.8 µM
- TGI (EKVX NSCLC): 19.5 µM
- TGI (SW-620 colon): 51.9 µM
- TGI (SR leukemia): 7.41 µM
- TGI (MDA-N): 21.5 µM
- TGI (OVCAR-8 ovarian): 11 µM
- TGI (SF-539 CNS): 18.4 µM
- TGI (UO-31 renal): 15.1 µM
- TGI (M14 melanoma): 34.1 µM
- TGI (SK-OV-3 ovarian): 19.3 µM
- TGI (HOP-62 NSCLC): 20.5 µM
- TGI (MDA-MB-231 breast): 18.1 µM
- TGI (U251 CNS): 9.73 µM
- TGI (SNB-19 CNS): 21.8 µM
- TGI (SN12C renal): 22.5 µM
- TGI (OVCAR-5 ovarian): 27.3 µM
- TGI (COLO 205 colon): 16.5 µM
- TGI (DU-145 prostate): 24.1 µM
- TGI (HOP-92 NSCLC): 22.2 µM
- TGI (SK-MEL-2 melanoma): 25.8 µM
- TGI (HT29 colon): 18 µM
- TGI (UACC-62 melanoma): 27.1 µM
- TGI (SK-MEL-28 melanoma): 14.4 µM
- TGI (HCC-2998 colon): 7.7 µM
- TGI (HL-60(TB) leukemia): > 100 µM
- TGI (KM12 colon): 31.5 µM
- TGI (SNB-75 CNS): 6.6 µM
- TGI (A498 renal): 28.9 µM
- TGI (IGROV1 ovarian): 17.3 µM
- TGI (OVCAR-3 ovarian): 12.9 µM
- TGI (RXF 393 renal): 7.45 µM
- TGI (PC-3 prostate): 41.2 µM
- TGI (SF-295 CNS): 5.87 µM
- TGI (MDA-MB-435): 20 µM
- TGI (786-0 renal): 9.41 µM
- TGI (TK-10 renal): 16.5 µM
- TGI (LOX IMVI melanoma): 16.6 µM
- TGI (MOLT-4 leukemia): 42.6 µM
- TGI (HCT-15 colon): 16.9 µM
- TGI (NCI-H23 lung): 11.9 µM
- TGI (NCI-H522 lung): 20.3 µM
- TGI (NCI-H460 lung): 20.8 µM
- TGI (CAKI-1 renal): 23.2 µM
- TGI (NCI/ADR-RES ovarian): 13.3 µM
- TGI (NCI-H226 lung): 19.4 µM
- TGI (CCRF-CEM leukemia): > 100 µM
- TGI (ACHN renal): 5.08 µM
- TGI (OVCAR-4 ovarian): 5.14 µM
- TGI (RPMI-8226 leukemia): 56.3 µM
- TGI (A549 NSCLC): 13.9 µM
- TGI (MCF7 breast): 21.6 µM
- TGI (T-47D breast): > 100 µM

Structure (SMILES): CCOC(=O)CCC(NC(=O)C(CCC(=O)OCC)NC(=O)C(Cc1ccc([N+](=O)[O-])cc1)NC(C)=O)C(=O)NNC(=O)OC(C)(C)C (configuration not stated)
- TGI (BT-549 breast): > 100 µM
- TGI (HCT-116 colon): > 100 µM
- TGI (UACC-257 melanoma): > 100 µM
- TGI (K-562 leukemia): > 100 µM
- TGI (MALME-3M melanoma): > 100 µM
- TGI (EKVX NSCLC): > 100 µM
- TGI (SW-620 colon): > 100 µM
- TGI (MDA-N): > 100 µM
- TGI (OVCAR-8 ovarian): > 100 µM
- TGI (UO-31 renal): > 100 µM
- TGI (M14 melanoma): > 100 µM
- TGI (HOP-62 NSCLC): > 100 µM
- TGI (MDA-MB-231 breast): > 100 µM
- TGI (U251 CNS): > 100 µM
- TGI (SNB-19 CNS): > 100 µM
- TGI (SN12C renal): > 100 µM
- TGI (OVCAR-5 ovarian): > 100 µM
- TGI (COLO 205 colon): > 100 µM
- TGI (HOP-92 NSCLC): > 100 µM
- TGI (SK-MEL-2 melanoma): > 100 µM
- TGI (HT29 colon): > 100 µM
- TGI (UACC-62 melanoma): > 100 µM
- TGI (SK-MEL-28 melanoma): > 100 µM
- TGI (HCC-2998 colon): > 100 µM
- TGI (HL-60(TB) leukemia): > 100 µM
- TGI (KM12 colon): > 100 µM
- TGI (SNB-75 CNS): > 100 µM
- TGI (A498 renal): > 100 µM
- TGI (IGROV1 ovarian): > 100 µM
- TGI (RXF 393 renal): 32.9 µM
- TGI (PC-3 prostate): > 100 µM
- TGI (786-0 renal): > 100 µM
- TGI (TK-10 renal): > 100 µM
- TGI (MOLT-4 leukemia): > 100 µM
- TGI (HCT-15 colon): > 100 µM
- TGI (NCI-H23 lung): > 100 µM
- TGI (NCI-H460 lung): > 100 µM
- TGI (HS 578T breast): > 100 µM
- TGI (SK-MEL-5 melanoma): > 100 µM
- TGI (NCI-H226 lung): > 100 µM
- TGI (ACHN renal): > 100 µM
- TGI (RPMI-8226 leukemia): > 100 µM
- TGI (A549 NSCLC): > 100 µM
- TGI (MCF7 breast): > 100 µM
- TGI (T-47D breast): > 100 µM
